Values of other authors in US20040259834A1, “Therapeutic composition containing at least diflomotecan and capecitabine” (priority 2003, published 2004).

Columns and labels:
various xenografts = various xenografts growing in nude mice
[1] = 7-membered β-hydroxylactone ring, more stable lactone form

Question: With `CC[C@@]1(O)CC(=O)OCc2c1cc1n(c2=O)Cc2cc3cc(F)c(F)cc3nc2-1` [Diflomotecan] as the compound, how does the activity against xenografts (various xenografts) read?
Answer: excellent activity

Question: And the plasma stability [1]?
Answer: greater plasma stability
